Square brackets hold non-standard residues; d marks the D form. Ends that are not written are not given here. * marks the point of attachment. Nle = CCCC[C@H](N)C(=O)O; For = O=C*

Data set [1] has as its system MEG-01 cells. Description: RT-PCR of FPR and FPRL-1 in MEG-01 cells. The data set is classed as cell-based, human. The conditions noted are these: 10^−7 M PMA for 5 days. How it is done: To further confirm that platelets express human N-formyl peptide receptors (FPR), RT-PCR of RNA harvested from the megakaryocytic cell line MEG-01 was performed. […] Treatment of MEG-01 cells with phorbol 12-myristate 13-acetate (PMA) induced differentiation with production of platelet-like structures^36. RNA harvested from HL60 cells, a promyelocytic cell line that expresses both FPR and FPRL 1, is shown in lane 1 (RT included), lane 2 (RT excluded), and lane 3 (RNA excluded) (FIG. 2a). […] RT-PCR generated bands were confirmed to encode the FPR or FPRL1 by sequence analysis. FPR protein expression in platelets was shown by immunoblotting with FPR specific antibody.
Total RNA was isolated using Ultraspec RNA isolation system (Biotecx Laboratories Inc., Houston Tes.), according to the manufacturer's protocol. To confirm purity of the product RNA, absorption ratios at 260/280 nm were determined to be […] for all samples. The samples were adjusted to 200 ng/μl for reverse transcription and PCR according to absorption at 260 nm. Total RNA was reversed-transcribed using Thermoscript RT (GibcoBRL, Gaithersburg, Md.). Conditions for PCR amplification of the resulting first-strand DNA template involved preheating a mixture of Taq DNA polymerase (5 U/ml) (GibcoBRL), primers, cDNA, and PCR components to 95° C. for 5 min before amplification. […]

Data set [2] concerns human platelets. Briefly: Intracellular free calcium in fura-2 loaded platelets. The data set is classed as cell-based. As to conditions: for calcium signal: thrombin-activated as well as non-activated platelets, 1 U thrombin, 10^−6 M peptide. How it is done:
Washed platelets were activated with either 0 U or 1 U thrombin (Sigma) for 10 min at 37° C. Fura-2 loaded platelets were prepared by incubating the platelets, for 45 min with fura-2 acetoxymethyl ester at 37° C. The dye-loaded platelets were washed and resuspended in calcium-free HBSS standard solution. The cells were then transferred into quartz cuvettes (10^9 cells in 2 ml), which were placed in a model MS-III spectrofluorometer (Photon Technologies, Inc.; South Brunswick, N.J.) and continuously stirred at 37° C. Stimulants were added in a 2 μl volume at indicated time points. The ratios of fluorescence at excitation wavelengths 340 and 380 nm and emission wavelength at 510 nm were calculated using FeliX fluorescence analysis software (Photon Technology Instruments; London, Ontario, Canada). Representative traces from at least six independent experiments are shown.

Data set [3] deals with Hep-2 cells. Description: Induction of apoptosis in Hep-2 cells, scored by H-33342/SYTOX staining. The data set is classed as cell-based. The conditions noted are these: 1 μM for 5 hours. How it is done:
Hep-2-cells were grown in DMEM medium supplemented with 10% FCS. Before each experiment, the cells were washed and the media was replaced with serum-free DMEM. After adaptation to this medium, cells were exposed to repeated freeze/thaw or UV radiation (1000J) in a UV Stratalinker UV oven (Stratagene) to induce necrosis. To induce apoptosis, cells were treated with 1 μM staurosporine (STS) for 5 hours. After the treatments, the cells were placed into a tissue culture incubator overnight. The supernatant was collected and used for experimentation and the cells were stained with a mixture of the membrane permeant dye H-33342 (500 ng/ml) and the membrane impermeant dye SYTOX (500 nM) (Molecular Probes; Eugene, Oreg.). Necrotic (damaged plasma membrane; non-condensed nuclei) and apoptotic (intact plasma membrane; characteristically condensed or fragmented nuclei) cells were scored. Necrotic cells after UV radiation=84%. Apoptotic cells after STS treatment=80%.

The target in data set [4] is T1, N-formyl peptide receptors on human platelets (Homo sapiens, UniProt P21462).
T1 construct: Platelet-rich plasma was prepared from whole blood by differential centrifugation; endogenous in cells
T1 sequence (P21462 1-350): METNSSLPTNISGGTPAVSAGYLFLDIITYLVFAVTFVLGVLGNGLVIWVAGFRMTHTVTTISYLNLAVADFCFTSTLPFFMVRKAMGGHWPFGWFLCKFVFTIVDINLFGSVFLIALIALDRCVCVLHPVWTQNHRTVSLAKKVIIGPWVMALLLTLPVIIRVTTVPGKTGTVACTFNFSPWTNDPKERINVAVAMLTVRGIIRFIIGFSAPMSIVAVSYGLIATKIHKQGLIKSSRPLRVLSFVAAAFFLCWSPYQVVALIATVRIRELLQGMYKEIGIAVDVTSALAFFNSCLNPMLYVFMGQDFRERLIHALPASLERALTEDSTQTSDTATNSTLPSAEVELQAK
Description: Flow cytometry of fluorescein-conjugated peptide binding to human platelets. As to conditions: 10^−7 M peptide; platelets treated with 0, 0.001, 0.1 or 10 U thrombin. How it is done:
(§1) To test whether human platelets express N-formyl peptide receptors, the binding of identical fluorescein-conjugated peptides to human platelets was evaluated by flow cytometry, where one contained a formyl group N-formyl-Nle-Leu-Phe-Nle-Tyr-Lys (fNLFNYK-fl) (SEQ ID NO:1), and the other without a formyl group Nle-Leu-Phe-Nle-Tyr-Lys (NLFNYK-fl) (SEQ ID NO:2). […] However, with permeabilization of non-activated platelets, fluorescein staining of granule-like particles was detected within the interior of platelets (FIG. 1d). […] Differential interference contrast (DIC) imaging (FIG. 1g insert) confirmed the presence of platelets.
Platelet-rich plasma was prepared from whole blood by differential centrifugation at 800×g for 5 min at 22° C. The top two-thirds of the platelet-rich plasma was removed and washed in PBS containing 1% fetal bovine serum. Washed platelets were activated with 0, 0.001, 0.1 or 10 U thrombin (Sigma, St. Louis, Mo.) for 10 min at 37° C. The platelets were then washed and incubated with 10^−7 M fluorescein conjugated N-formyl peptide; fNLFNYK-fl (SEQ ID NO:1; Molecular Probes, Eugene, Oreg.) or 10^−7 M fluorescein conjugated non-N-formylated peptide; NLFNYK-fl (SEQ ID NO:2; New England Peptide, Fitchburg, Mass.) for 30 min at room temperature. […] Samples were analyzed on a Becton Dickinson (Franklin Lakes, N.J.) FASCcalibur/CELLQuest system. […]

Data set [5] has as its target T1, N-formyl peptide receptors on human platelets. Description: Confocal microscopy of fluorescein-conjugated peptide binding to human platelets. The conditions noted are these: 10^−6 M peptide; thrombin-activated platelets. How it is done: as §1
Platelet-rich plasma was prepared as mentioned above. Washed platelets were activated with either 1 or 10 U thrombin (Sigma) for 10 min at 37° C. The platelets were washed two times and fixed with 4% paraformaldehyde for 20 min at 4° C. The platelets were then washed and permeablized with 100% methanol for 15 min at 4° C. […] The platelets were washed two times, spun onto cover slips, and mounted with ProLong® Antifade Kit (Molecular Probes). Confocal images were collected on a Leica TCS-NT/SP confocal microscope (Leica Microsystems, Exton, Pa.) using a 100-x oil emersion objective NA 1.4, zoom 2. Representative images from three independent experiments are shown (FIG. 2).

In data set [6] the test system is human platelets. Briefly: Platelet chemotaxis by transwell migration (ChemoTx microplate). The data set is classed as cell-based. As to conditions: for chemotaxis of thrombin-activated platelets toward peptide: 10^−6 and 10^−7 M peptide, 10 U thrombin, P<0.001. How it is done: The chemotactic activity of activated and non-activated platelets in response to different concentrations of fMLF by transwell migration (FIG. 4a) was determined. […] Both thrombin-activated and non-activated platelet migration followed a concentration-response curve that was greatest at 10^−6 M fMLF (27.2±12) in the thrombin-activated platelets and 10^−7 M fMLF (11.5±6.5) in the non-activated platelets (FIG. 4a). […] Next the dependence of platelet chemotaxis on the presence of a Formyl group on the peptide was tested. […] Non-activated platelets behaved similarly. Thus, the presence of a Formylgroup was essential for FPR binding, calcium mobilization and platelet chemotaxis.
Platelet migration was assessed using a 96-well ChemoTx® microplate (Neuro Probe, Gaithersburg Md.). For all chemotaxis experiments, different concentrations of stimulants were placed in the bottom wells of the microplate and the filter was positioned (2 μm pore size). The cell suspension was seeded onto the top of the filter (30 μl) and the microplates were incubated for 2 hrs at 37° C. For all chemokinesis experiments, different concentrations of stimulants were placed in the bottom wells of the microplate and the filter was positioned. The cell suspension containing different concentrations of stimulants were placed on the filter (30 μl) in a gradient fashion. After incubation, the lid was removed and the filter was gently wiped with a cell harvester and carefully flushed with media to remove any of the non-migrated cells. The filter was then carefully removed and the migrated cells were counted by light microscopy. Results are expressed as the mean value (±SD) of total migrated cells, in triplicate samples, and are taken from five experiments independent.
Chemotactic responses were distinguished from chemokinetic responses by placing increasing concentrations of fMLF in the upper and lower chambers of the transwell plates (Table 1).
There was no enhanced cell migration when higher concentrations of fMLF were present in the upper wells or with equal concentrations of fMLF in both the upper and lower wells, as would be seen with chemokinesis.
Different concentrations of fMLF were placed in the upper and/or lower wells of the chemotaxis plate; platelets at 10^6 cells/ml were placed on the upper filter. After a 2-hour incubation, the non-migrated cells were removed and the cells that migrated across the filter were counted. The results are expressed as the mean value (±SD) of the migrated cells in at least six separate experiments (n=24). Grey shading indicates wells containing a greater concentration of fMLF in the lower well compared to the upper well. Platelet migration in transwells maintaining a gradient of fMLF between chambers were compared with wells containing equimolar concentrations of fMLF in both chambers (p<0.002, Student's t-test)

On to `CCCCCCCCCCCCCC(=O)O[C@@H]1[C@@H](C)[C@@]2(O)[C@@H](C=C(CO)C[C@]3(O)C(=O)C(C)=C[C@@H]23)[C@@H]2C(C)(C)[C@]12OC(C)=O` [PMA, phorbol 12-myristate 13-acetate], for which the “FPR and FPRL-1 mRNA expression after induced megakaryocyte differentiation” value in data set [1] was “transactivation of the genes encoding both the FPR and FPRL-1”.

In the case of `CN[C@@H]1C[C@H]2O[C@@](C)([C@@H]1OC)n1c3ccccc3c3c4c(c5c6ccccc6n2c5c31)C(=O)NC4` [STS, staurosporine], the “platelet calcium flux response to thrombin after incubation with STS” value in data set [2] (platelets incubated with STS directly) is on record as “capable of subsequent calcium flux responses to thrombin”. The “apoptotic cells after treatment” value in data set [3] is listed as 80%.

As to For-[Nle]LF[Nle]YK [fNLFNYK-fl], the “binding of fluorescein-conjugated peptide to platelets by flow cytometry” value in data set [4] is “increased binding with increased thrombin activation”. Moreover, the “binding of fluorescein-conjugated peptide to platelets by confocal microscopy” value in data set [5] was “upregulation of external N-formyl peptide binding with platelet activation”. The “chemotaxis of thrombin-activated platelets toward peptide” value in data set [6] is “significantly more migration”.

As to MLF: the non formyl peptide, MLF, in data set [2], the calcium signal entry is on record as “failed to elicit a calcium signal”.

Regarding “N-formyl-methionine-leucine-phenalanine [fMLF]”, the “checkerboard analysis: chemotaxis versus chemokinesis” value in data set [6] (fMLF in upper and/or lower wells, 2-hour incubation) is “directed migration and not chemokinesis”. The “platelet migration, mean value (±SD) of migrated cells” value stood at 11.5±6.5 in data set [6] (non-activated platelets, 10^−7 M fMLF (greatest response)) and 27.2±12 in data set [6] (thrombin-activated platelets, 10^−6 M fMLF (greatest response)). The “calcium signal after pretreatment with thrombin” value in data set [2] (pretreatment with thrombin (1 U), then fMLF stimulation) is on record as “greater fluorescent signal”. Moreover, the calcium signal entry in data set [2] is listed as “induced a calcium signal”.

Consider “Nle-Leu-Phe-Nle-Tyr-Lys ([Nle]LF[Nle]YK-fluorescein) [NLFNYK-fl, fluorescein conjugated non-N-formylated peptide (New England Peptide)]”, for which the “binding of fluorescein-conjugated peptide to platelets by flow cytometry” value in data set [4] is “non-specific and did not increase with thrombin activation”. The “binding of fluorescein-conjugated peptide to platelets by confocal microscopy” value in data set [5] is “no binding”. The “chemotaxis of thrombin-activated platelets toward peptide” value in data set [6] is given as “failed to induce significant chemotaxis”.

In the case of thrombin, the calcium signal result in data set [2] was “induced a calcium signal”.
